In patent publication US10882826B2, “Quinolinone or quinazolinone comprising antibiofilm compositions, compounds and methods and uses relating thereto” (University College Cork—National University of Ireland, priority 2015, dated 2021):

How the values were obtained:
[1] = system: A. fumigatus Af293 biofilm; test: A. fumigatus biofilm assay (crystal violet); format: cell-based, Aspergillus fumigatus; conditions: for Relative absorbance at 595 nm compared to methanol control, Mean: A. fumigatus Af293 biofilm, 100 μM, 24 hrs, crystal violet; for effectiveness against fungal biofilms formed by Aspergillus fumigatus (in words): summary statement
Experimental: A. fumigatus Af293 was routinely grown on Sabouraud dextrose agar (SDA) in 100 ml cell culture flasks at 37° C. for 3-4 days until a lawn of fungal growth was observed.
(§1) A. fumigatus Af293 was grown on SDA in 100 ml cell culture flasks at 37° C. for 3-4 days. Conidia were harvested by flooding the surface of the agar plates with 5 ml PBS (Oxoid) containing 0.025% (v/v) Tween 20 and gently moving the liquid over the surface of the fungal lawn. The conidial suspension was transferred into a 25 ml sterile container and conidia were counted using a Neubauer haemocytometer and light microscope. Conidia were adjusted to the required concentration in RPMI 1640 (Sigma) buffered to pH 7.0 with 0.165 M MOPS immediately prior to biofilm formation analysis.
(§2) To assess biofilm formation, counted A. fumigatus spores (1×10^5) in MOPS buffered RPMI 1640 were inoculated into 24- and 96-well plates and grown overnight in the presence of 100 μM HHQ, PQS and the test compounds. After 24 hrs, the media was removed and the biofilm washed twice with distilled water after which 0.1% crystal violet (CV) was added to each well and allowed to stand for 1 hr at room temperature. The crystal violet was removed and all wells washed in a water bath by inversion. Ethanol was added to each well to solubilise biofilms after which samples were read on a spectrophotometer at Abs595 nm.

Pseudomonus aeruginosa = test: Virulence of Pseudomonas aeruginosa (summary statement); format: cell-based; conditions: unlike HHQ and PQS
Experimental: The virulence of compounds B1, B2, C2, C3, C4, C5, C6, C8 and C11 towards P. aeruginosa was assessed using the following method:
P. aeruginosa strains were cultured as described above for 24 hr, with the addition of test compounds (10 μM). Cultures were centrifuged at 4000 rpm for 10 minutes and the cell free supernatant (5 ml) removed. Chloroform (3 ml) was added, and mixed by vortex. After centrifugation at 4000 rpm for 5 mins, the lower aqueous phase was transferred to 0.2 M HCl (2 ml). Samples were mixed by vortex and centrifuged at 4000 rpm for 5 mins to separate the phases. An aliquot of the top phase (1 ml) was removed and spectrophotmetrically analysed at OD570 nm. Phenazine production was calculated using the following formula: OD570 nm×2×17.072 and the units expressed in μg/ml. […]

mammalian cells = test: Cytotoxicity towards mammalian cells (summary statement); format: cell-based
Experimental: Lactate dehydrogenase (LDH) release from IB3 lung epithelial cells was assayed as a measure of cytotoxicity using an LDH colorimetric kit (Roche) according to manufacturers' instructions. Briefly, IB3-1 cells were seeded onto 96 well plates and treated with methanol (control) and test compounds (100 μM). Following 16 hr incubation at 37° C. and 5% CO2, supernatants were removed and added to catalyst reaction mixture in a fresh plate and further incubated at 37° C. and 5% CO2 for 30 mins to allow for colour development. After this period, the plate was analysed on an ELISA plate reader at OD490 nm. Cytotoxicity was expressed as a percentage of cells treated with 0.1% (v/v) Triton (100% cytotoxicity). The results are detailed in table 3:
The above experiments were repeated, testing some compounds against further cell lines (A549, DU145 and HeLa).

[2] = system: P. aeruginosa PAO1 pqsA-pqsA-lacZ strain; test: Phenazine extraction (phenazine production); format: cell-based; conditions: for Phenazine, Mean: PAO1 pqsA-pqsA-lacZ strain, test compounds 10 μM, 24 hr, methanol control 0.080; for Normalised Phenazine, Mean: normalized to the methanol control (=1), n>=2
Experimental: (§3) P. aeruginosa strains, PAO1 and pqsA mutant, containing the chromosomally inserted pqsA-lacZ promoter fusion on plasmid pUC18-mini-Tn7, were sub-cultured from glycerol stocks onto LB agar plates, supplemented with Carbenicillin (200 μg/ml) and X-gal (40 μg/ml), and incubated at 37° C. overnight. Single colonies were inoculated into LB broth (20 ml), supplemented with Carbenicillin (200 μg/ml), and incubated at 37° C., shaking at 180 rpm overnight. For subsequent experiments, the OD600 nm was recorded and a starting OD600 nm of 0.02 was inoculated into fresh LB broth, supplemented with Carbenicillin (200 μg/ml) and incubated at 37° C., shaking at 180 rpm.
P. aeruginosa strains were cultured as described above for 24 hr, with the addition of test compounds (10 μM). Cultures were centrifuged at 4000 rpm for 10 minutes and the cell free supernatant (5 ml) removed. Chloroform (3 ml) was added, and mixed by vortex. After centrifugation at 4000 rpm for 5 mins, the lower aqueous phase was transferred to 0.2 M HCl (2 ml). Samples were mixed by vortex and centrifuged at 4000 rpm for 5 mins to separate the phases. An aliquot of the top phase (1 ml) was removed and spectrophotmetrically analysed at OD570 nm. Phenazine production was calculated using the following formula: OD570 nm×2×17.072 and the units expressed in μg/ml.
(§4) The phenazine production levels and Miller units in the PAO1 pqsA-pqsA-lacZ strain are detailed in table 5.
(§5) The virulence of compounds B2, C13 and C15 towards P. aeruginosa was assessed using an analogous method.

[3] = system: pqsA-lacZ promoter fusion; test: Promoter fusion based expression analysis (pqsA-lacZ, Miller units); format: cell-based, P. aeruginosa; conditions: for Miller Units, Mean: PAO1 pqsA-pqsA-lacZ strain, 100 μM, overnight, methanol control 12287; for Normalised Miller Units, Mean: normalized to the methanol control (=1), n>=2
Experimental: as §3
Promoter fusion analyses were performed in a 96-well format. Briefly, overnight cultures of wild-type PAO1 pqsA-lacZ (pLP0996) and mutant strain PAO1 pqsA^− pqsA-LacZ were diluted to OD600 nm=0.02 in LB. Test compounds at 100 μM final concentration were added, mixed, aliquoted into 96 well plates and incubated overnight at 37° C. with shaking. The next day, OD600 nm values were recorded in a plate reader. Aliquots of cells (0.02 ml) were permeabilised [100 mM dibasic sodium phosphate (Na2HPO4), 20 mM KCl, 2 mM MgSO4, 0.8 mg/mL CTAB (hexadecyltrimethylammonium bromide), 0.4 mg/mL sodium deoxycholate, 5.4 μL/mL beta-mercaptoethanol] and added to substrate solution [60 mM Na2HPO4, 40 mM NaH2PO4, 1 mg/mL o-nitrophenyl-β-D-Galactoside (ONPG), 2.7 μL/mL β-mercaptoethanol]. The kinetics of colour development was monitored and the reactions were stopped using 1M NaCO3. OD420 nm were recorded as above. Miller units were calculated using the following equation; 1000×[OD420 nm/(OD600 nm)×0.02 ml×reaction time (mins)].
as §4, §5

[4] = system: C. albicans strain SC5314 biofilm; test: XTT metabolic assay of C. albicans biofilm; format: cell-based, Candida albicans; conditions: C. albicans biofilm, test compound 100 μM, 24 hr; MeOH control 0.647, untreated 0.851
Experimental: C. albicans strain SC5314 was sub-cultured from 15% (v/v) glycerol stocks at −80° C. onto Yeast Peptone Dextrose (YPD) medium [1% (w/v) yeast extract, 2% (w/v) peptone and 2% (w/v) dextrose] and incubated at 30° C. overnight.
The test compounds in desiccated form were re-suspended in Methanol to create a 10 mM stock. […]
The ability of some of the compounds detailed in example 1 to disrupt Candida albicans was tested using Confocal Scanning Laser Microscopy and an XTT Metabolic Assay. The XTT assay is a commonly used quantitative method assessing Candida biofilm mass and growth often in response to novel drug therapies.
C. albicans biofilm formation was carried out in 96 well plates by a method of the prior art. Briefly, C. albicans was inoculated into Yeast Nitrogen Base [10% (w/v)] and glucose/maltose [10% (w/v)] and incubated overnight at 30° C. Seeding densities for all subsequent experiments (N=3) were OD600=0.05. Cells were grown in Yeast Nitrogen Base supplemented with 1 M Phosphate buffer and acetyl-D-glucosamine (YNB-NP) along with appropriate volumes of test compound to provide the desired concentration. Cells were cultured in 96 well plates for 1 hr at 37° C. to facilitate yeast attachment. After this incubation, the supernatants were aspirated, the wells washed twice with YNB-NP media, and fresh media with the same concentration of test compound added to the appropriate wells. The plate was incubated for 24 hr at 37° C. The next day, the cultures were aspirated and the wells washed once with YNB-NP media.
C. albicans biofilm quantification was carried out in 96 well plates using a semi-quantitative Tetrazolium salt, 2,3-bis-(2-methoxy-4-nitro-5-sulfophenyl)-2H tetrazolium-5-carboxanilide inner salt (XTT) reduction assay (Hawser, Tunney et al, Antimicrob Agents Chemother. 2004 May; 48(5):1879-81). XTT (0.01 g) was dissolved in sterile water (20 ml) and filter sterilized. 10 μl of Menadione dissolved in Acetone was added to the XTT solution, just before use. The XTT-Menadione Solution (100 μl) was added to each well. The plate was incubated in the dark at 37° C. for up to 2 hr to allow for colour development. The OD492 nm was recorded for each well. Experiments were repeated at least three times, with at least eight technical replicates.
Experiments were first carried out using the test compound at concentration of 100 μM.

[5] = system: A. fumigatus CFBRC3 biofilm; test: A. fumigatus biofilm assay, clinical source CFBRC3; format: cell-based, Aspergillus fumigatus; conditions: biofilm from clinical source CFBRC3
Experimental: as §1, §2
(§6) The above experiments were carried out using biofilms grown from laboratory sources of A. fumigatus. The experiments were repeated to test some compounds against biofilms grown from three different clinical sources of A. fumigatus (CFBRC1, CFBRC2 and CFBRC3. The results are shown in table 8: […]

[6] = system: A. fumigatus CFBRC2 biofilm; test: A. fumigatus biofilm assay, clinical source CFBRC2; format: cell-based, Aspergillus fumigatus; conditions: biofilm from clinical source CFBRC2
Experimental: as §1, §2, §6

[7] = system: A. fumigatus CFBRC1 biofilm; test: A. fumigatus biofilm assay, clinical source CFBRC1; format: cell-based, Aspergillus fumigatus; conditions: biofilm from clinical source CFBRC1
Experimental: as §1, §2, §6

Row | SMILES | Relative absorbance at 595 nm compared to methanol control, Mean [1] | effectiveness against fungal biofilms formed by Aspergillus fumigatus (in words) [1] | effect on virulence of Pseudomonus aeruginosa (in words) (Pseudomonus aeruginosa) | cytotoxicity towards mammalian cells (in words) (mammalian cells) | Phenazine, Mean [2] [µg/mL] | Miller Units, Mean [3] [Miller Units] | Absorbance at 492 nm, Mean (XTT) [4] | Relative absorbance compared to MeOH (=1), Mean [5] | Relative absorbance compared to MeOH (=1), Mean [6] | Relative absorbance compared to MeOH (=1), Mean [7] | Normalised Phenazine, Mean [2] | Normalised Miller Units, Mean [3]
1 | CCCCCCCc1cc(=O)c2cc(CCCCCC)ccc2[nH]1 [Compound C7] | 0.27 | effective | do not increase the virulence | reduced cytotoxicity | – | – | – | – | – | – | – | –
2 | CCCCCCCCCc1cc(=O)c2cc(OC)ccc2[nH]1 [Compound C8] | 0.47 | effective | do not increase the virulence | reduced cytotoxicity | 0.205 | 11753 | 0.457 | – | – | – | – | –
3 | CCCCCCCc1cc(=O)c2ccc(OC)cc2[nH]1 [Compound C9] | 0.18 | effective | do not increase the virulence | reduced cytotoxicity | – | – | – | 0.439 | 0.484 | 0.593 | – | –
4 | CCCCCCCc1cc(=O)c2cc(OC)ccc2[nH]1 [Compound C11] | – | – | do not increase the virulence | reduced cytotoxicity | 0.432 | 12254 | 0.242 | – | – | – | – | –
5 | CCCCCCCc1cc(=O)c2cc(C(=O)OCC)ccc2[nH]1 [Compound C13] | 0.38 | effective | do not increase the virulence | reduced cytotoxicity | – | – | – | 0.609 | 0.620 | 0.507 | 0.747 ratio to methanol control | 0.3715
6 | CCCCCCCc1cc(=O)c2cc(F)ccc2[nH]1 [Compound C14] | 0.42 | – | – | reduced cytotoxicity | – | – | – | 0.501 | 0.823 | 0.550 | – | –
7 | CCCCCCCc1cc(=O)c2c(C)cc(C)cc2[nH]1 [Compound C15] | 0.25 | effective | do not increase the virulence | reduced cytotoxicity | – | – | – | 0.413 | 0.443 | 0.518 | 0.4984 ratio to methanol control | 0.4671
